# Earlier results in patent US20180116967A1, “EXTENDED RELEASE TABLET OF CYCLOBENZAPRINE” (SYNMOSA BIOPHARMA CORPORATION, priority 2015, published 2018).
# Test system: plasma protein
smiles,measurement,value
"CN(C)CCC=C1c2ccccc2C=Cc2ccccc21 [cyclobenzaprine, 3-(5H-dibenzo[a,d]cyclohepten-5-ylidene)-N,N-dimethyl-1-propanamine]",drug coupled to plasma protein,About 93%
